Assay results taken from patent US20060217395A1, “Combinations of paroxetine and 4- (s) - (4-acetyl-piperazin-1-yl) -2- (r)- (4-fluoro-2-methyl- phenyl -piperidine-1-carboxylic acid [1- (r) (3,5-bis-trifluoromethyl-phenyl) -ethyl] methylamide for treatment of depression and / or anxiety” (GLAXO GROUP LIMITED, priority 2003, published 2006).
Counter-ions that a name gives are not always drawn.

Tested on: mongolian gerbils
Test: gerbil social interaction model (social stress assay)
Format: in vivo
Settings: one hour after administration
Experimental: Paroxetine hydrochloride hemihydrate (0.03 mg/kg p.o of the paroxetine measured as the free base), 4-(S)-(4-Acetyl-piperazin-1-yl)-2-(R)-(4-fluoro-2-methyl-phenyl)-piperidine-1-carboxylic acid [1-(R)-(3,5-bis-trifluoromethyl-phenyl)-ethyl]-methylamide methansulphonate (hereinafter compound A) (0.03 mg/kg i.p of the compound A measured as the free base) and a combination of paroxetine (0.03 mg/kg p.o. of the paroxetine measured as the free base) and compound A (0.03 mg/kg i.p. of the compound A measured as the free base) were administered independently in mongolian gerbils to assess the effect on time spent in active social interactions.
The results obtained one hour after administration, expressed as a percentage variation of the time spent in active social interactions by each animal in respect to the value obtained by treatment of control animals, are summarised in table 1.

SMILES	% variation of the time spent in active social interactions in respect to control animals (0.03 mg/kg i.p. (measured as the free base)) [%]	% variation of the time spent in active social interactions in respect to control animals (0.03 mg/kg p.o. (measured as the free base)) [%]
CC(=O)N1CCN([C@H]2CCN(C(=O)N(C)[C@H](C)c3cc(C(F)(F)F)cc(C(F)(F)F)c3)[C@@H](c3ccc(F)cc3C)C2)CC1.CS(=O)(=O)O [Compound A, 4-(S)-(4-Acetyl-piperazin-1-yl)-2-(R)-(4-fluoro-2-methyl-phenyl)-piperidine-1-carboxylic acid [1-(R)-(3,5-bis-trifluoromethyl-phenyl)-ethyl]-methylamide methansulphonate]	20.7	
Fc1ccc([C@@H]2CCNC[C@H]2COc2ccc3c(c2)OCO3)cc1 [Paroxetine hydrochloride hemihydrate, (−)trans-4-(4′-fluorophenyl)3-(3′-4′-methylenedioxyphenoxymethyl) piperidine]		−2.4
